Laboratory results from article PMC6447718, “PACAP-38 and PACAP(6–38) Degranulate Rat Meningeal Mast Cells via the Orphan MrgB3-Receptor” (Frontiers in Cellular Neuroscience, 2019).
Entries after “also recorded” stand apart in the source; their conditions may differ. Where two headings read alike, the source gives them in different places.

Columns and labels:
[1] = system: rat peritoneal mast cells; conditions: ref Baun et al., 2012, cited from earlier work; for peritoneal mast cell degranulation (result in words): rat peritoneal mast cells
Excerpt: Inspired by clinical findings, we have previously characterized the degranulating effect of various PACAP-analogues on isolated rat peritoneal mast cells. Based on the expectation that degranulation is mediated through the PAC1-receptor, we found an unpredicted order of potency (Baun et al., [2012]).

rat meningeal mast cells = assay: Mast cell degranulation in hemi-skull preparations (dura mater, toluidine blue staining, microscopic count); format: cell-based, rat (male Sprague-Dawley); conditions: for degranulated meningeal mast cells in % of total number of mast cells: 30 s incubation, mean ± SEM; for mast cell degranulation: Figure 4A, PACAP-27 n = 6, maxadilan n = 5, mean ± SEM; for mast cell degranulation (result in words): 0.1 to 10 μM, rat meningeal mast cells
Method: Mast cell degranulation was performed as previously described (Pedersen et al., [2015]). In brief, skulls were cut mid-sagittal and the brain halves were removed, leaving the dura mater undisturbed. This was followed by immediate addition of either 350 μl 0.1, 1 or 10 μM PACAP-38 (custom synthesis by Caslo Laboratory ApS, Lyngby, Denmark) or vehicle (saline) in phosphate buffered saline (PBS). After 30 s incubation, the reactions were terminated, and the skulls were fixated in 4% paraformaldehyde in phosphate buffered saline (PBS; Glostrup Hospital Pharmacy, Denmark). The dura mater was dissected from the skull, whole mounted on slides, and mast cells were visualized by staining with 0.1% acidified toluidine blue (Sigma Aldrich, Germany). Tissues were dehydrated in graded alcohols prior to cover slip mounting. The level of mast cell degranulation was evaluated by 400× magnification (Nikon Eclipse Ni microscope) by a researcher blinded to the treatment and was counted in 10 consecutive fields along the stem part of the middle meningeal artery. Mast cells were considered degranulated if an extensive dispersion of more than 10 extruded granules were localized outside the cell or if an extensive loss of staining gave the cell a “ghostly” look.
(§1) Concentration-response curves for both oocytes and dural mast cells were analyzed for overall effects of PACAP-38 and -27 by two-way analyses of variance (ANOVA) followed by Sidak’s test for multiple pairwise comparisons. Effects of PAC1-receptor ligands on mast cell degranulation or on receptor-expressing oocytes were analyzed with a one-way ANOVA followed by Tukey’s multiple comparisons test. The effect of PACAP-38 and PACAP(6–38) on MrgB3-expressing oocytes were analyzed by an unpaired two-tailed t-test. Differences between groups were considered significant when p < 0.05 and data are presented as mean with standard error of the mean (±SEM). GraphPad Prism 7 (GraphPad Prism Software, San Diego, CA, USA) was used for statistical analysis.

[2] = system: PAC1-receptor (Rattus Norvegicus Adcyap1r1 variant 5, null-splice variant); format: cell-based
Excerpt: (§2) DNA of the coding region of Rattus Norvegicus Adcyap1r1 variant 5 (NM_001270582.1) encoding the null-splice variant (short N-terminal and neither exon 14 or 15) of the PAC1-receptor (Vector: EX-Rn10199-M03) was ordered from GeneCopoeia. DNA encoding the RGD1560730 gene (XM_006229262.3, GenScript), was cloned into the pXOOM vector as previously described (Jespersen et al., [2002]). DNA was purified using Plasmid DNA Purification NucleoBond Xtra Midi-kit (Macherey-Nagel). […] Extracted plasmids were linearized down-stream the poly(A) segment using the XhoI restriction enzyme (New England Biolabs, Ipswich, MA, USA). RNA was in vitro transcribed by synthetization from the T7 RNA polymerase promoter using the mMessenger mMachine kit (Ambion) according to manufacturer’s protocol. Messenger RNA was purified using the MEGAclear kit (Ambion). Transcribed RNA integrity was assessed by agarose gel electrophoresis.
(§3) Stage V and VI defolliculated Xenopus laevis oocytes were purchased from EcoCyte Bioscience (Dortmund, Germany) and kept in Kulori medium (90 mM NaCl, 4 mM KCl, 1 mM MgCl2, 1 mM CaCl2, and 5 mM Hepes, pH 7.4). Oocytes were micro-injected with 50 nl mRNA solution containing 30 ng RNA per oocyte and incubated at 19°C. Currents were measured after 2–5 days using a conventional two-electrode-voltage clamp (TEVC). The oocytes were placed in a 200 μl chamber and continuously exposed to a flow of Kulori medium with or without ligands (1 ml/min) while impaled with both a current and a voltage electrode filled with 3 M KCl and connected to an Oocyte Clamp Amplifier [Warner Instruments Corp. (OC-725 B) and a PC-interface (Digidata1440A, Molecular Devices)]. Current amplitude in absence or presence of ligands were analyzed using pClamp 10.2 software (Molecular Devices). All experiments were performed with oocyte membrane voltages constantly clamped to −70 mV and the temperature was kept between 19 and 22°C. In activation experiments, non-responding as well as low-responding (<10 nA) oocytes were excluded from the dataset. Ligands PACAP-38, PACAP-27, PACAP(6–38) were custom synthetized by Caslo (Lyngby, Denmark) while maxadilan was purchased from Bachem (Bubendorf, Switzerland).
as §1

[3] = system: MrgB3-receptor (RGD1560730); assay: Two-electrode voltage clamp on MrgB3-receptor-expressing Xenopus laevis oocytes; format: cell-based, rat; conditions: for activation of MrgB3-receptor (result in words): 1–10 μM, holding potential −70 mV
Excerpt: as §2, §3, §1

un-injected oocytes = assay: Two-electrode voltage clamp on un-injected Xenopus laevis oocytes (control); format: cell-based; conditions: for delayed long-lasting response in un-injected oocytes: 10 μM; for currents in un-injected oocytes (result in words): same concentrations as in receptor-expressing oocytes (0.1–3 μM; maxadilan up to 10 μM), data not shown
Method: as §3

[4] = system: calcitonin gene-related peptide (CGRP) release from the trigeminal nucleus caudalis; conditions: ref Jansen-Olesen et al., 2014; cited from earlier work
Excerpt: Future studies will have to rule out if MrgB3-receptors are involved in PACAP- ...

PAC1-receptor = conditions: presence of 21-amino acid domain in extracellular N-terminal domain (PAC1-full, short); ref Pantaloni et al., 1996; cited from earlier work
Excerpt: Pituitary adenylate cyclase-activating peptide-38 (PACAP-38) is a 38-amino acid neuropeptide located in both sensory and parasympathetic perivascular nerve fibers (Moller et al., [1993]; Mulder et al., [1994]). A C-terminal truncated 27-amino acid (PACAP-27) version is endogenously present as well but is less abundant (Miyata et al., [1990]; Arimura et al., [1991]; Ogi et al., [1993]). […] At present, three PACAP-receptors have been identified: PA ... || Several different splice variants of the PAC1-receptor have been identified in rats. Splice sites in the extracellular N-terminal domain and the third intracellular loop account for fine tuning of ligand affinity and signal transduction through adenylate cyclase or PLC activation (Deutsch and Sun, [1992]; Spengler et al., [1993]).

VPAC1-receptor = system: VPAC1-receptor; parameters: method as in Harmar et al., 2012; conditions: PACAP-38, PACAP-27 and VIP compared; ref Harmar et al., 2012; cited from earlier work
VPAC2-receptor = system: VPAC2-receptor; parameters: method as in Harmar et al., 2012; conditions: PACAP-38, PACAP-27 and VIP compared; ref Harmar et al., 2012; cited from earlier work
migraine patients = conditions: ref Schytz et al., 2009, cited from earlier work
Excerpt: Pituitary adenylate cyclase-activating peptide-38 (PACAP-38) is a 38-amino acid neuropeptide located in both sensory and parasympathetic perivascular nerve fibers (Moller et al., [1993]; Mulder et al., [1994]). A C-terminal truncated 27-amino acid (PACAP-27) version is endogenously present as well but is less abundant (Miyata et al., [1990]; Arimura et al., [1991]; Ogi et al., [1993]). […] Degranulation of mast cells can be induced either by an allergen-IgE-dependent mechanism or via an IgE-independent mechanism. The latter mechanism can be activated by a group of molecules known as basic secretagogues.

[5] = 10.0 μM, n = 6, **** p < 0.0001 for PACAP-38 (two-way ANOVA, Sidak's test)

| Compound | effect of inhibitor on PACAP-38-induced degranulation (result in words) [1] | degranulated meningeal mast cells in % of total number of mast cells (rat meningeal mast cells; 0.1 μM, n = 5) [% degranulation] | degranulated meningeal mast cells in % of total number of mast cells (rat meningeal mast cells; 1.0 μM, n = 6) [% degranulation] | degranulated meningeal mast cells in % of total number of mast cells (rat meningeal mast cells; [5]) | mast cell degranulation (rat meningeal mast cells; 10 μM, 30 s) [%] | mast cell degranulation (result in words) (rat meningeal mast cells; 30 s) | activation of PAC1-receptor / relative potency (result in words) [2] | activation of MrgB3-receptor (result in words) [3] | delayed long-lasting response in un-injected oocytes (un-injected oocytes) | currents in un-injected oocytes (result in words) (un-injected oocytes) | peritoneal mast cell degranulation (result in words) [1] | release of CGRP from the trigeminal nucleus caudalis (result in words) [4] | effect of 21-amino acid N-terminal domain of PAC1 on binding (result in words) (PAC1-receptor) | profile on VPAC1-receptor (result in words) (VPAC1-receptor) | profile on VPAC2-receptor (result in words) (VPAC2-receptor) | activation of PAC1-receptor / relative potency (result in words) ([2]; 0.01 to 1 μM, holding potential −70 mV) | current ([3]; up to 10 μM, −70 mV, Figure 4C, n = 9, mean ± SEM) [μA] | increase in mast cell degranulation (rat meningeal mast cells; 10 μM, 30 s, p < 0.0001) | migraine attacks / headache after infusion (result in words) (migraine patients; PACAP-38: 20-min intravenous infusion) | adverse events after infusion (result in words) (migraine patients; infusion, terminated by antihistamine treatment) |
| --- | --- | --- | --- | --- | --- | --- | --- | --- | --- | --- | --- | --- | --- | --- | --- | --- | --- | --- | --- | --- |
| Nc1ncnc2c1ncn2C1CCCO1 (stereo not drawn) [SQ22536] | ineffective |  |  |  |  |  |  |  |  |  |  |  |  |  |  |  |  |  |  |  |
| COc1ccc2c(c1)CC[C@@H]1[C@@H]2CC[C@]2(C)[C@@H](NCCCCCCN3C(=O)C=CC3=O)CC[C@@H]12 [U-73122] | impaired |  |  |  |  |  |  |  |  |  |  |  |  |  |  |  |  |  |  |  |
| Pituitary Adenylate Cyclase Activating Peptide-27 [PACAP-27] |  | 7.1 ± 3.2 | 16.9 ± 5.5 | 12.1 ± 3.8 % degranulation | 12 ± 4 | did not induce mast cell degranulation that was significantly different from saline treatment; also recorded: unresponsive | equipotent; also recorded: significant increase in membrane current; also recorded: activates the PAC1-receptor with apparently equal potencies | not significantly different from baseline; also recorded: no change; also recorded: not PACAP-27 and maxadilan induces currents | not PACAP-27 | Currents were not observed | not PACAP-27 and VIP, caused degranulation; also recorded: weak degranulating effect | neither VIP, PACAP-27 nor maxadilan, mediated the release | impairs PACAP-27 binding | equipotent | equipotent |  |  |  |  |  |
| maxadilan |  |  |  |  | 5 ± 2 | unresponsive |  | does not activate MrgB3-receptors; also recorded: no change; also recorded: not PACAP-27 and maxadilan induces currents |  | Currents were not observed | no effect on mast cell degranulation; also recorded: ineffective | neither VIP, PACAP-27 nor maxadilan, mediated the release |  |  |  | activates the PAC1-receptor with apparently equal potencies; also recorded: equipotent | −0.03 ± 0 |  |  |  |
| pituitary adenylate cyclase activating peptide-38 [PACAP-38] |  | 12.4 ± 3.8 | 17.9 ± 3.7 | 48.4 ± 6.2**** % degranulation |  | more potent mast cell degranulating agent than Pituitary Adenylate Cyclase Activating Peptide-27 (PACAP-27) in the meninges; also recorded: significant mast cell degranulation only was observed after stimulation with PACAP-38; also recorded: strong degranulation of meningeal mast cells | equipotent; also recorded: significant increase in membrane current; also recorded: activates the PAC1-receptor with apparently equal potencies | only PACAP-38 induces a significant change in current; also recorded: rapid concentration-depended inward current; also recorded: caused a change in current; also recorded: induces currents | 15 out of 19 | Currents were not observed | caused degranulation; also recorded: strong degranulation effect; also recorded: almost total mast cell degranulation within the first 10–20 s after application | mediated the release |  | equipotent | equipotent |  |  | eight-fold increase | provokes migraine attacks in migraine patients as well as headache in non-migraineurs | all participants in the clinical provocation studies experienced long-lasting flushing; also recorded: heat sensation and long-lasting flushing |
